According to US20120270237A9, “METHODS FOR THE IDENTIFICATION OF KINASE INTERACTING MOLECULES AND FOR THE PURIFICATION OF KINASE PROTEINS” (Cellzone AG, priority 2009, published 2012):

Columns and labels:
Assay in all cases: Kinobeads competition binding, L-363 cell lysate
Details in all cases: 10 μM free compound, L-363 lysate
AAK1 = AAK1 (Homo sapiens, UniProt Q2M2I8); design: capturing and identification of kinases from L-363 cell lysate; endogenous in cells; host or cells: L-363 cells, treated with MG132 before harvest
Method: (§1) To one aliquot of cell lysate 10 μM of the free compound (FIG. 3, CZC31326) was added and allowed to bind to proteins in the lysate. Then the affinity matrix with the immobilized compound was added to capture proteins that were not interacting with the previously added free compound. Beads were separated from the lysate and bead bound proteins were eluted in SDS sample buffer and subsequently separated by SDS-Polyacrylamide gel electrophoresis (FIG. 8). Suitable gel bands were cut out and subjected to in-gel proteolytic digestion with trypsin. The second lysate aliquot was processed identically, however no free compound was added (DMSO solvent control). Peptides originating from samples 1 and 2 were labeled with iTRAQ reagents (iTRAQ 114 and iTRAQ 117) and the combined samples were analyzed with a nano-flow liquid chromatography system coupled online to a tandem mass spectrometer (LC-MS/MS) experiment followed by iTRAQ reporter ion quantification in the MS/MS spectra as described in Example 2.
(§2) For this experiment the human plasma cell leukaemia line L-363 was used (German Collection of Microorganisms and Cell Cultures, DSMZ number ACC49, Braunschweig, Germany). Cells were treated for three hours with 20 μM of the proteasome inhibitor MG132 (Z-Leu-Leu-Leu-al, Sigma C2211) prior to cell harvesting.

BTK = BTK (Homo sapiens, UniProt Q06187); design: capturing and identification of kinases from L-363 cell lysate; endogenous in cells; host or cells: L-363 cells, treated with MG132 before harvest
Method: as §1, §2

JNK2 = JNK2 (Homo sapiens, UniProt P45984); design: Identified kinases with CZC31326 from L-363 cell lysate; endogenous in cells; host or cells: L-363 (MG132-treated)
Method: as §1, §2

JAK2 = JAK2 (Homo sapiens, UniProt O60674); design: Identified kinases with CZC31326 from L-363 cell lysate; endogenous in cells; host or cells: L-363 (MG132-treated)
Method: as §1, §2

JAK1 = JAK1 (Homo sapiens, UniProt P23458); design: Identified kinases with CZC31326 from L-363 cell lysate; endogenous in cells; host or cells: L-363 (MG132-treated)
Method: as §1, §2

IRE1 = IRE1 (Homo sapiens, UniProt O75460); design: Identified kinases with CZC31326 from L-363 cell lysate; endogenous in cells; host or cells: L-363 (MG132-treated)
Method: as §1, §2

TBK1 = molecular target: T1, TBK1 (Homo sapiens, UniProt Q9UHD2); design: capturing and identification of kinases from L-363 cell lysate; endogenous in cells; host or cells: L-363 (treated with MG132 before harvest)
T1 sequence (Q9UHD2 1-729): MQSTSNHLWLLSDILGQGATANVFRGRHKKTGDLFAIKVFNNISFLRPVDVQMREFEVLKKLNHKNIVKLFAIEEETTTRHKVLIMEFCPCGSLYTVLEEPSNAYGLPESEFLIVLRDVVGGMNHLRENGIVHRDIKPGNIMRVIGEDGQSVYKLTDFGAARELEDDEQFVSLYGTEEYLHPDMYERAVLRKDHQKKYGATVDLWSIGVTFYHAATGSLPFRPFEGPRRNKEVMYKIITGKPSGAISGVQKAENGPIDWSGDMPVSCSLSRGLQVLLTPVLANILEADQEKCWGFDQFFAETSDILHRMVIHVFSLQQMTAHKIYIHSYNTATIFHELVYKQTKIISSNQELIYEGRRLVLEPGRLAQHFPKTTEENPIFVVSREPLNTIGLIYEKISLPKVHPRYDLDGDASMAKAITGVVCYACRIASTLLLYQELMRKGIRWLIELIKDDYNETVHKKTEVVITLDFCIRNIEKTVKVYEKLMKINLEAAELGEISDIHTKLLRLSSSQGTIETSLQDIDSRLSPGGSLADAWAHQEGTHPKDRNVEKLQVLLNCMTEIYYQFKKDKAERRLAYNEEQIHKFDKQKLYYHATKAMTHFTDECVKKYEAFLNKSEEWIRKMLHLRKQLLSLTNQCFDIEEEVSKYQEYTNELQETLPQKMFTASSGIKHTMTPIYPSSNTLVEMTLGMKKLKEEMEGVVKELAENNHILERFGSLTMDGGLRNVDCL
Method: as §1, §2

MAP3K4 = MAP3K4 (Homo sapiens, UniProt Q9Y6R4); design: endogenous in cells; host or cells: L-363 cells (DSMZ ACC49), treated with MG132 before harvest
Method: as §1, §2

TYK2 = TYK2 (Homo sapiens, UniProt P29597); design: endogenous in cells
Method: as §1, §2

MLK3 = MLK3 (Homo sapiens, UniProt Q16584); design: endogenous in cells
Method: as §1, §2

CHK1 = CHK1 (Homo sapiens, UniProt O14757); design: endogenous in cells
Method: as §1, §2

CaMK2g = CaMK2g (Homo sapiens, UniProt Q13555); design: endogenous in cells
Method: as §1, §2

LOK = LOK (Homo sapiens, UniProt O94804); design: endogenous in cells
Method: as §1, §2

Sequence of JNK2 (P45984 whole entry): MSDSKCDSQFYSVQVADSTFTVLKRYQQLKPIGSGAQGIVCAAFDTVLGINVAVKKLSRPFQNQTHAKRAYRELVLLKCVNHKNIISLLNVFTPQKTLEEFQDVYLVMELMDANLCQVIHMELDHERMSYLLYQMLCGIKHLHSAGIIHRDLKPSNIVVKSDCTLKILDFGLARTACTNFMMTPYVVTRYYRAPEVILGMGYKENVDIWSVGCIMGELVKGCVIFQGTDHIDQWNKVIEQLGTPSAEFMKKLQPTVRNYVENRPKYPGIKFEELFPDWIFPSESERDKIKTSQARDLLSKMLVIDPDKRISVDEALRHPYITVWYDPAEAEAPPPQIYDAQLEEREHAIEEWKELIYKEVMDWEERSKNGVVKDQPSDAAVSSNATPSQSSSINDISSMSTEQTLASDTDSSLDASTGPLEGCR
Sequence of LOK (O94804 whole entry): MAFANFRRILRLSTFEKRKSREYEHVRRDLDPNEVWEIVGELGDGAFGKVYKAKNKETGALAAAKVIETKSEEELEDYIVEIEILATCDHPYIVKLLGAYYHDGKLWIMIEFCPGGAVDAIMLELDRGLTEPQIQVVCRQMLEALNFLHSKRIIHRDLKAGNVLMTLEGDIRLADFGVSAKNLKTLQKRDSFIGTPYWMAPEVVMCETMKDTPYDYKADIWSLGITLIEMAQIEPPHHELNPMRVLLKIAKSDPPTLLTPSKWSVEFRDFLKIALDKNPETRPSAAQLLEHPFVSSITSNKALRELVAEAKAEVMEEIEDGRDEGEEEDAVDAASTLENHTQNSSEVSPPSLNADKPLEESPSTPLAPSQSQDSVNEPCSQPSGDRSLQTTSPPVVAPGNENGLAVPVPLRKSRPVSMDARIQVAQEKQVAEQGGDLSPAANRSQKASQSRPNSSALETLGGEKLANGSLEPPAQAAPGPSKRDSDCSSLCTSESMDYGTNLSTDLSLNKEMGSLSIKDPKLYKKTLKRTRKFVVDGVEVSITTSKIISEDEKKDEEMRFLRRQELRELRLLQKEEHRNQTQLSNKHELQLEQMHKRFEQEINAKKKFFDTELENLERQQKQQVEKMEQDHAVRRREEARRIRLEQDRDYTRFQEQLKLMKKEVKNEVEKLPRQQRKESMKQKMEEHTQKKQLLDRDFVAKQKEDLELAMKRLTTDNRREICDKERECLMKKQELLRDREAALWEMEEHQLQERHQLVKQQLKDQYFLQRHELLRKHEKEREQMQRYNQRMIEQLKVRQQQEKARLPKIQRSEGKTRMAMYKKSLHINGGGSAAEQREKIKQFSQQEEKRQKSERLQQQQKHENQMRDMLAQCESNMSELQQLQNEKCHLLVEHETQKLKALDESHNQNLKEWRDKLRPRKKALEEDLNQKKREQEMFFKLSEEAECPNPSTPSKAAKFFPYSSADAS
Sequence of CHK1 (O14757 whole entry): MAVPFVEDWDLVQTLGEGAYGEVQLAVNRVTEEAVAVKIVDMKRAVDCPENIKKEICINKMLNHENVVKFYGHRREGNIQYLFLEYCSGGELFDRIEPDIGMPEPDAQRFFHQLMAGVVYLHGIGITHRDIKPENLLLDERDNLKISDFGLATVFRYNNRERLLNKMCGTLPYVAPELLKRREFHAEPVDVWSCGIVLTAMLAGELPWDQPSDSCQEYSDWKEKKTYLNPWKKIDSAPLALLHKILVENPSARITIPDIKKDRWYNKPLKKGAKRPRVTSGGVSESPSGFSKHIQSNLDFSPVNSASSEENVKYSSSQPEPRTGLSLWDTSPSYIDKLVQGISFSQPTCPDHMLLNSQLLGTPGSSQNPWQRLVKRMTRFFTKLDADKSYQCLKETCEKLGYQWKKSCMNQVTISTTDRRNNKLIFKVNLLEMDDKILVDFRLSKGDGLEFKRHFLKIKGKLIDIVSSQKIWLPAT
Sequence of BTK (Q06187 whole entry): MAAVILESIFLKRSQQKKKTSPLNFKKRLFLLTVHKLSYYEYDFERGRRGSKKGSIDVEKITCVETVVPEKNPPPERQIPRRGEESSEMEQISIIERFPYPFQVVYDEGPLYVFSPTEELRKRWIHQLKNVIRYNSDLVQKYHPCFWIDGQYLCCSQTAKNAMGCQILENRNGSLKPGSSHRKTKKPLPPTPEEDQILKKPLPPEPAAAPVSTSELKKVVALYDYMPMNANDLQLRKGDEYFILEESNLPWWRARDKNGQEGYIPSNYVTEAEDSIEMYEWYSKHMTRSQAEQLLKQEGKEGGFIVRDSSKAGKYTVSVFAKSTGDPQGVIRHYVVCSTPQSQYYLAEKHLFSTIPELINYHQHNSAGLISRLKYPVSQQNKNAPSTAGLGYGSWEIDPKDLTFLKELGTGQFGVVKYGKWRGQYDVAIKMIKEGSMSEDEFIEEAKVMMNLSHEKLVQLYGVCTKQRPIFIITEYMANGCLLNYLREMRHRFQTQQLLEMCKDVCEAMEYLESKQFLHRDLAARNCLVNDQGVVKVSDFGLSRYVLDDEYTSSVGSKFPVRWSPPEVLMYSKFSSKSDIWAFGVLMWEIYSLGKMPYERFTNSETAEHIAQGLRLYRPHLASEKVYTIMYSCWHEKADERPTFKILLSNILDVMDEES
Sequence of JAK2 (O60674 whole entry): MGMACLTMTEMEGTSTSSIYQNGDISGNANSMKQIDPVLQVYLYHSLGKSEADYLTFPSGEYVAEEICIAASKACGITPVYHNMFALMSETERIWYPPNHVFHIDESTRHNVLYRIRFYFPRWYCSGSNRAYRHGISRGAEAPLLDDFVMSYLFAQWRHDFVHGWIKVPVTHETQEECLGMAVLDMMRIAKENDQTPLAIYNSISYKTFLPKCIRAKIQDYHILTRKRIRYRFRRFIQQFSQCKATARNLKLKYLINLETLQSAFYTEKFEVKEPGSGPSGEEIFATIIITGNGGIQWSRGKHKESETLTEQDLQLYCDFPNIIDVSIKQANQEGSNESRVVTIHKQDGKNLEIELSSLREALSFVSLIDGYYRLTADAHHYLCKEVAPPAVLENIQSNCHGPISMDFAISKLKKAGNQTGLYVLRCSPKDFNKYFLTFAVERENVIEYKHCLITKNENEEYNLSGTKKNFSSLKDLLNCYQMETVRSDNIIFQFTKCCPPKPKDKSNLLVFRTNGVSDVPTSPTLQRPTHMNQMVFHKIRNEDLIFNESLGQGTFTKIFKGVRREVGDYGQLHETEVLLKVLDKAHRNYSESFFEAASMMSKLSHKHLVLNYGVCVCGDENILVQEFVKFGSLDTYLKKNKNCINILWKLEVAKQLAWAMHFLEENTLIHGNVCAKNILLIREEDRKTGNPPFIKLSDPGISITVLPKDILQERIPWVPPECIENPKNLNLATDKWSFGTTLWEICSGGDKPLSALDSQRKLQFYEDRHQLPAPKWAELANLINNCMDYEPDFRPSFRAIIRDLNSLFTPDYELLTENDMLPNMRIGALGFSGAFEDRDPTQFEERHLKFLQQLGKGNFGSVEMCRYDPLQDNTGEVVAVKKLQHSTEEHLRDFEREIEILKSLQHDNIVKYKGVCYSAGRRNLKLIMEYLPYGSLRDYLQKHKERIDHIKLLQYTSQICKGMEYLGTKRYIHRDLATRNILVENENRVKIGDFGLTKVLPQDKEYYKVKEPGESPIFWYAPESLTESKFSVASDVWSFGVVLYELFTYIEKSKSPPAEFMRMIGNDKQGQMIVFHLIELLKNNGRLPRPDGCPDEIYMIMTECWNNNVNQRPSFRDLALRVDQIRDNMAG
Sequence of AAK1 (Q2M2I8 whole entry): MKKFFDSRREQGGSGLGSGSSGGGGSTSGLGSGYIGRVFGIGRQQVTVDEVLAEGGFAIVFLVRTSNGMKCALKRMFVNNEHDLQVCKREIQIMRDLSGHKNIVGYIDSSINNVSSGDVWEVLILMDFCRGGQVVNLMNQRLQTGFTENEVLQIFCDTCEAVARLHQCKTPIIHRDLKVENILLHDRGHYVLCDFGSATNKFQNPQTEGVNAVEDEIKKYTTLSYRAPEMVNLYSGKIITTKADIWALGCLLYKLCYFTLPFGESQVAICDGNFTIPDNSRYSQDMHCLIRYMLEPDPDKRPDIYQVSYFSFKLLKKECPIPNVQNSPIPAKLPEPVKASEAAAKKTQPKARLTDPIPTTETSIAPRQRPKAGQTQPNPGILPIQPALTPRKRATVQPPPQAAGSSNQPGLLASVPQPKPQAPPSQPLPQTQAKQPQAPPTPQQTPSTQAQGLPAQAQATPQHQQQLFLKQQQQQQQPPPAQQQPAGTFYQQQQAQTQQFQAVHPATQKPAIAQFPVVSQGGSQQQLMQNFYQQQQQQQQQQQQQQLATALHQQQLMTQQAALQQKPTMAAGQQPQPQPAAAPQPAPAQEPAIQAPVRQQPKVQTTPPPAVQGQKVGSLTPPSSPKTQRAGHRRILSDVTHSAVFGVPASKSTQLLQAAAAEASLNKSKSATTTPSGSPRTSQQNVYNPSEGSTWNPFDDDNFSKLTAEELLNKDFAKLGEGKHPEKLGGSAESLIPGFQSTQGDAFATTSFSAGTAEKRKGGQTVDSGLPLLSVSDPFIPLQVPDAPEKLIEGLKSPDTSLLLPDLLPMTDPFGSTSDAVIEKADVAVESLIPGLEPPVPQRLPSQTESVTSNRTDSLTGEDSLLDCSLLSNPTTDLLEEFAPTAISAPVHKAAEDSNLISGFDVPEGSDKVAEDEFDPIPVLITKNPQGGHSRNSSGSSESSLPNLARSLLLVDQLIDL

- inhibition at 10 µM (AAK1): 97.4%
- Competition % (BTK): 95.7%
- Competition % (JNK2): 88%
- Competition % (JAK2): 96.1%
- Competition % (JAK1): 97.2%
- inhibition at 10 µM (IRE1): 97.9%
- inhibition at 10 µM (TBK1): 95.8%
- inhibition at 10 µM (MAP3K4): 95.8%
- Competition % (TYK2): 96.9%
- Competition % (MLK3): 97.5%
- Competition % (CHK1): 94.8%
- inhibition at 10 µM (CaMK2g): 75.9%
- Competition % (LOK): 86.9%
SMILES: CS(=O)(=O)Nc1ccccc1Nc1nc(Nc2cccc(OCCN)c2)ncc1Cl [CZC31326, N-(2-(2-(3-(2-aminoethoxy)phenylamino)-5-chloropyrimidin-4-ylamino)phenyl)methanesulfonamide]
